Reference: patent US20220008401A1, “COMPOSITIONS AND METHODS FOR TREATING PULMONARY DISEASE WITH MATRIX METALLOPROTEINASE INHIBITORS” (DARSHA LLC, priority 2019, published 2022)

Legend:
LPS injured mice [1] = assay: Pulmonary wet to dry ratio (edema), LPS-injured mice, single inhaled dose; format: in vivo, C57BL/6J mice; conditions: LPS 1.5 mg/kg; 24 hours later single aerosolized dose 35 mg/kg; right middle lobe; n=3/group (control 4.1, LPS 12.9)
Method: (§1) We next determined if inhaled Compound 1 attenuated specific features of acute inflammatory lung injury that were also observed in response to LPS. Again, 12-week-old male C57BL/6J mice were intranasally instilled with LPS (1.5 mg/kg of 1 mg/ml solution in sterile PBS). 24 hours later, these mice received a single dose of aerosolized MMP inhibitor (Compound 1, dissolved in PBS, 35 mg/kg) or PBS alone and a tail vein injection of FITC labeled albumin (FITC-albumin). One hour following nebulization, the mice were sacrificed. The left lung was fixed in formalin from each animal, paraffin embedded, sectioned and stained with H&E to examine histological features indicative of lung injury. These were achieved by visually scoring each slide based on a lung injury scoring system developed by the American Thoracic Society for animal models of inflammatory lung injury.
Edema was also assessed by determination of pulmonary wet to dry ratios. At the time of sacrifice the right middle lobe was removed from each animal and promptly weighed to obtain the wet weight. Thereafter, the lung tissue was dried in an oven at 65° C. for 72 hours and then weighed to obtain the dry weight.

LPS injured mice [2] = assay: Lung injury (inflammation) score of H&E lung sections, LPS-injured mice, single inhaled dose; format: in vivo, C57BL/6J mice; conditions: LPS 1.5 mg/kg intranasal; 24 hours later single aerosolized dose 35 mg/kg; sacrifice one hour after; vs LPS alone p<0.001
Method: as §1

LPS injured mice [3] = assay: Lung injury score (LIS) and H&E sections, LPS-injured mice, q6h x 4 doses; format: in vivo
[4] = Presence of aerosolized Compound 1 in lung of LPS-injured mice; format: in vivo, C57BL/6J mice; conditions: single aerosolized dose 35 mg/kg, one hour following nebulization
Method: (§2) MMP 9 was selected as a target as it is a well-established mediator of inflammation in lung injury. 12-week-old male C57BL/6J mice were intranasally instilled with LPS (1.5 mg/kg of 1 mg/ml solution in sterile PBS). 24 hours later, these mice received a single dose of aerosolized MMP inhibitor (Compound 1, dissolved in PBS, 35 mg/kg) or PBS alone. One hour following nebulization, the mice were sacrificed and assessed for MMP activity in both the bronchoalveolar lavage fluid (BALF) and lung tissue homogenate obtained from treated mice. One hour following nebulization of Compound 1, the presence of the aerosolized Compound 1 in the lung was confirmed at concentrations >100 ng/g of tissue. MMP activity in BALF was determined using a commercially available MMP 9 Quantikine assay from R&D systems.

MMP 9 [5] = target: T1, MMP 9 (Mus musculus, UniProt P41245); assay: MMP 9 Quantikine assay on BALF of LPS-injured mice, single inhaled dose; format: in vivo, C57BL/6J mice; set-up: assessed for MMP activity in both the bronchoalveolar lavage fluid (BALF) and lung tissue homogenate obtained from treated mice; from tissue; host or cells: bronchoalveolar lavage fluid (BALF) of LPS-injured C57BL/6J mice; conditions: LPS 1.5 mg/kg intranasal; 24 hours later single aerosolized dose 35 mg/kg; sacrifice one hour after nebulization
T1 sequence (P41245 108-730): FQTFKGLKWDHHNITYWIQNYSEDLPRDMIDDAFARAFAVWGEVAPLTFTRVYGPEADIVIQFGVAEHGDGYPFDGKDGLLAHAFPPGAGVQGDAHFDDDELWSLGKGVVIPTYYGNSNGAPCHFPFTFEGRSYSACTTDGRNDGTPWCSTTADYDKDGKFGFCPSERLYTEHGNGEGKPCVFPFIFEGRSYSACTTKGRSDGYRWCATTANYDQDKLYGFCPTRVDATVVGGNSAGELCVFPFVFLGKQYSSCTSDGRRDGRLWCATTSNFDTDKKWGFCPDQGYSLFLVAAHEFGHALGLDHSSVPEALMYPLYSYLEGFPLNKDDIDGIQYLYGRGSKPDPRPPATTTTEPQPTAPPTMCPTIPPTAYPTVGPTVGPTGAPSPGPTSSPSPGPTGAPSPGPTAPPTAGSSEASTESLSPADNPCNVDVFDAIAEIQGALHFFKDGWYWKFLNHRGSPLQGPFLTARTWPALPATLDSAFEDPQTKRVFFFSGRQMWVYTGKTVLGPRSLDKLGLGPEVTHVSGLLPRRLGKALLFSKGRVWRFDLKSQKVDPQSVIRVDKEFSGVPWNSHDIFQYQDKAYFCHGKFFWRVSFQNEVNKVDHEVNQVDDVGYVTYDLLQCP
Method: as §2

neutrophils (PMN) = assay: BALF cell counts (cytospin, DifQuik), LPS-injured mice, single inhaled dose; format: in vivo; conditions: 1 hour following treatment
Method: Since substantial literature indicates neutrophils (PMN) are critical mediators of inflammatory damage in injured lung, we next assessed if inhaled Compound 1 attenuated PMN infiltration of LPS injured lungs. To achieve this, mice were injured with LPS and 24 h later received a single inhaled dose of Compound 1 and were sacrificed 1 hour after dosing. PMN infiltration was assessed by examining lung sections (qualitatively) and BALF (quantitatively) from Compound 1 treated and untreated mice. Quantitative examination was performed on BALF samples that were collected from each animal and subsequently subjected to cytospin centrifugation and DifQuik staining. The fraction of PMN present in each sample may be quantified by counting 300 cells of the inflammatory cell population across three different microscopic images. The obtained fraction may then be multiplied by the total cell count to estimate the number of PMNs present in the BALF.

MMP 9 [6] = target: T1, MMP 9; assay: MMP-9 Quantikine assay on lung homogenates of LPS-injured mice; format: in vivo; set-up: One-hour post-Compound 1 treatment lung homogenates were collected and analyzed; from tissue; host or cells: lung tissue homogenate of LPS-injured mice
Method: Inhibition of MMP-9 by inhaled Compound 1 treatment was assessed using a Quantikine Assay (R&D systems). Mice were injured by nasal instillation of LPS followed by treatment with inhaled PBS or Compound 1 (5 mg/mL). One-hour post-Compound 1 treatment lung homogenates were collected and analyzed.

LPS injured mice [7] = assay: FITC-albumin BALF:serum ratio (vascular permeability/edema), LPS-injured mice, single inhaled dose; format: in vivo, C57BL/6J mice; conditions: LPS 1.5 mg/kg; 24 hours later single aerosolized dose 35 mg/kg; sacrifice one hour after; n=6/group (control 0.44, LPS 1.1)
Method: as §1
Tissue edema was assessed using two methods. First, serum and BALF fluid were collected from mice and FITC-albumin levels were measured in each using a fluorescent microplate reader. Fluid leakage into injured lungs is indicative of increased vascular permeability and could be indicative of edema. A greater fluid leakage would also be characterized by increased levels of FITC-albumin in the BALF. To determine the level of vascular permeability and edema, the ratio of BALF FITC-albumin to serum FITC-albumin was calculated. […]

[8] = LPS treated mice, single inhaled dose

Question: With “butanamide, N-hydroxy-2-[[(4-hydroxyphenyl)sulfonyl](3-pyridinylmethyl)amino]-3-methyl, hydrochloride, (2R) [Compound 1]” as the substance, how does the “pulmonary wet:dry ratio” value (LPS injured mice [1]) read?
Answer: Its value is 7.3.

Question: And the “lung injury score (Inflammation Score)” value (LPS injured mice [2])?
Answer: Its value is “reduces the lung injury score”.

Question: And the “Lung Injury Score (LIS)” value (LPS injured mice [3]; LPS 1.5 mg/kg, four doses (12 mg/kg) via nebulizer every 6 hours from 24 hours after LPS, n=5 (LPS only 0.524±0.054, PBS only 0.188±0.025))?
Answer: The value was 0.277±0.031 LIS.

Question: What about the “inflammation in H&E stained lung sections (qualitative)” value (LPS injured mice [3]; LPS then four nebulized doses every 6 hours, vs mice only receiving LPS) of the same substance?
Answer: The value was “reduced inflammation”.

Question: What about the “concentration of aerosolized Compound 1 in the lung” value [4] of the same substance?
Answer: Its value is > 100 ng/g of tissue.

Question: And the “MMP 9 activity in BALF” value (MMP 9 [5])?
Answer: Its value is “inhibits MMP 9 activity in the BALF”.

Question: And the “total PMN counts in the BALF” value (neutrophils (PMN); LPS then 24 h later single inhaled dose, n=5/group, p=0.01 (LPS/PBS 5.3×10^6))?
Answer: Its value is 1.2×10^6 neutrophils/ml.

Question: And the “macrophage count in the BALF” value (neutrophils (PMN); [8])?
Answer: Its value is “remained unchanged”.

Question: And the “overall cell count in BALF” value (neutrophils (PMN); [8])?
Answer: Its value is “significant reduction”.

Question: And the “MMP-9 activity (Quantikine)” value (MMP 9 [6]; LPS nasal instillation then inhaled Compound 1 (5 mg/mL), lung homogenates one hour post-treatment, n=6 (LPS 9260±1173, PBS 2388±370))?
Answer: Its value is 3614±442.1 RFU.

Question: And the “MMP-9 levels in whole lung homogenate” value (MMP 9 [6]; LPS-injured, Compound 1 treated animals)?
Answer: The value was “decreased significantly”.

Question: And the “ratio of BALF FITC-albumin to serum FITC-albumin” value (LPS injured mice [7])?
Answer: The value was 0.49.
